Data reported in ChEMBL document CHEMBL5331108, “Design and Synthesis of 4-Fluorophenyl-5-methylene-2(5H)-furanone Derivatives as Potent Quorum Sensing Inhibitors” (J Med Chem, 2023).
Activity calls are given as the source filed them. The calls are words filed in the database; no cut-off is given here.

Key:
[1] = test system: Pseudomonas aeruginosa; test: Synergistic antibacterial activity against Pseudomonas aeruginosa PAO1 assessed as inhibition of bacterial growth at 1 to 256 ug/ml incubated for 24 hrs in the presence of ciprofloxacin by absorbance based microplate reader analysis; type: functional, organism-based; conditions: dose 1-256 µg/ml
[2] = Inhibition of quorum sensing system in Escherichia coli MG4/pKDT17 harboring lasR gene with lasB::lacZ translation fusion assessed as inhibition of lasR translation activation by measuring inhibition of […] activity incubated for 8 hrs by absorbance based analysis; conditions: dose 32-128 µg/ml
[3] = Hemolytic activity in mouse red blood cells assessed as hemolysis rate at 512 ug/ml incubated for 1 hrs by microplate reader analysis relative to control; type: toxicity, cell-based, Erythrocyte; conditions: red blood cells (erythrocytes), at 512 µg/mL, read-out: Activity
[4] = test system: Pseudomonas aeruginosa; test: Inhibition of biofilm formation in Pseudomonas aeruginosa PAO1 assessed as effect on biofilm morphology at 102.4 ug/ml incubated for 24 hrs by scanning electron microscopic analysis; type: functional, organism-based; conditions: dose 102.4 µg/ml
[5] = Inhibition of quorum sensing system in Pseudomonas aeruginosa PAO1 assessed as inhibition of rhamnolipid production at 102.4 ug/ml incubated for 24 hrs by absorbance based assay; conditions: dose 102.4 µg/ml
[6] = Inhibition of quorum sensing system in Pseudomonas aeruginosa PAO1 assessed as inhibition of pyocyanin production at 102.4 ug/ml incubated for 18 hrs by absorbance based assay; conditions: dose 102.4 µg/ml
[7] = test system: Pseudomonas aeruginosa; test: Synergistic antibacterial activity against Pseudomonas aeruginosa 27853 assessed as inhibition of bacterial growth at 256 ug/ml incubated for 24 hrs in the presence of Ciprofloxacin by absorbance based microplate reader analysis relative to control; type: functional
[8] = test system: Pseudomonas aeruginosa; test: Synergistic antibacterial activity against Pseudomonas aeruginosa PAO1 infected in Kunming mouse model assessed as reduction in viable bacteria at 25 mg/kg, ip pre-infected with bacteria for 1 hrs followed by compound administration and measured after 1 hrs in the presence of ciprofloxacin; type: functional, organism-based
[9] = test system: Pseudomonas aeruginosa; test: Antibacterial activity against Pseudomonas aeruginosa PAO1 assessed as inhibition of bacterial growth at 256 ug/ml measured after 25 hrs by absorbance based assay; type: functional, organism-based; conditions: dose 256.0 µg/ml
[10] = test system: Bacillus subtilis; test: Antibacterial activity against penicillin-susceptible Bacillus subtilis ATCC9372 assessed as inhibition of bacterial growth incubated for 20 hrs by CLSI protocol based microdilution method; type: functional
[11] = test system: Escherichia coli; test: Antibacterial activity against penicillin-susceptible Escherichia coli ATCC25922 assessed as inhibition of bacterial growth incubated for 20 hrs by CLSI protocol based microdilution method; type: functional
[12] = Inhibition of quorum sensing system in Pseudomonas aeruginosa PAO1 assessed as inhibition of protease activity at 102.4 ug/ml incubated for 24 hrs by absorbance based assay; conditions: dose 102.4 µg/ml
[13] = test system: Pseudomonas aeruginosa; test: Synergistic antibacterial activity against Pseudomonas aeruginosa 27853 assessed as inhibition of bacterial growth incubated for 24 hrs in the presence of Clarithromycin by absorbance based microplate reader analysis; type: functional, organism-based; conditions: dose 1-256 µg/ml
[14] = test system: Pseudomonas aeruginosa; test: Synergistic antibacterial activity against Pseudomonas aeruginosa 27853 assessed as inhibition of bacterial growth at 256 ug/ml incubated for 24 hrs in the presence of Clarithromycin by absorbance based microplate reader analysis relative to control; type: functional
[15] = test system: Pseudomonas aeruginosa; test: Antibacterial activity against Pseudomonas aeruginosa PAO1 assessed as inhibition of swarming movement at 25.6 to 102.4 ug/ml incubated for 24 hrs; type: functional, organism-based; conditions: dose 25.6-102.4 µg/ml
[16] = Inhibition of quorum sensing system in Pseudomonas aeruginosa PAO1 transfected with pqsA-gfp reporter assessed as inhibition of fluorescence expression incubated for >=12 hrs by microplate reader analysis; conditions: dose 32-256 µg/ml
[17] = test system: Pseudomonas aeruginosa; test: Antibacterial activity against penicillin-susceptible Pseudomonas aeruginosa ATCC27853 assessed as inhibition of bacterial growth incubated for 20 hrs by CLSI protocol based microdilution method; type: functional
[18] = test system: Pseudomonas aeruginosa; test: Synergistic antibacterial activity against Pseudomonas aeruginosa PAO1 assessed as inhibition of bacterial growth at 1 to 256 ug/ml incubated for 24 hrs in the presence of Clarithromycin by absorbance based microplate reader analysis; type: functional, organism-based; conditions: dose 1-256 µg/ml
[19] = test system: Pseudomonas aeruginosa; test: Synergistic antibacterial activity against Pseudomonas aeruginosa 27853 assessed as inhibition of bacterial growth at 1 to 256 ug/ml incubated for 24 hrs in the presence of Ciprofloxacin by absorbance based microplate reader analysis; type: functional, organism-based; conditions: dose 1-256 µg/ml
[20] = test system: Pseudomonas aeruginosa; test: Inhibition of biofilm formation in Pseudomonas aeruginosa PAO1 at 32 ug/ml incubated for 20 hrs by crystal violet staining based analysis; type: functional
[21] = test system: Pseudomonas aeruginosa; test: Synergistic antibacterial activity against Pseudomonas aeruginosa PAO1 assessed as inhibition of bacterial growth at 1 ug/ml incubated for 24 hrs in the presence of ciprofloxacin by absorbance based microplate reader analysis relative to control; type: functional
[22] = test system: Bacillus pumilus; test: Antibacterial activity against penicillin-susceptible Bacillus pumilus CMCC63202 assessed as inhibition of bacterial growth incubated for 20 hrs by CLSI protocol based microdilution method; type: functional
[23] = test system: Pseudomonas aeruginosa; test: Antibacterial activity against wild type Pseudomonas aeruginosa […] CGMCC1.12483 assessed as inhibition of bacterial growth incubated for 20 hrs by CLSI protocol based microdilution method; type: functional
[24] = Inhibition of quorum sensing system in Escherichia coli pDSY harboring rhlR gene with rhlA::lacZ translation fusion assessed as inhibition of rhlA translation activation by measuring inhibition of […] activity incubated for 8 hrs by absorbance based analysis; conditions: dose 32-128 µg/ml
[25] = test system: Staphylococcus aureus; test: Antibacterial activity against methicillin-resistant Staphylococcus aureus ATCC43300 assessed as inhibition of bacterial growth incubated for 20 hrs by CLSI protocol based microdilution method; type: functional
[26] = Inhibition of quorum sensing system in Pseudomonas aeruginosa PAO1 transfected with gfp reporter gene assessed as effect on fluorescence expression at 32 to 256 ug/ml incubated for >=12 hrs by microplate reader analysis; conditions: dose 32-256 µg/ml
[27] = test system: Staphylococcus aureus; test: Antibacterial activity against erthromycin-susceptible Staphylococcus aureus ATCC25923 assessed as inhibition of bacterial growth incubated for 20 hrs by CLSI protocol based microdilution method; type: functional
[28] = Inhibition of quorum sensing system in Pseudomonas aeruginosa PAO1 transfected with lasB-gfp reporter assessed as inhibition of fluorescence expression incubated for >=12 hrs by microplate reader analysis; conditions: dose 32-256 µg/ml
[29] = test system: Pseudomonas aeruginosa; test: Synergistic antibacterial activity against Pseudomonas aeruginosa PAO1 assessed as inhibition of bacterial growth at highest concentration incubated for 24 hrs in the presence of ciprofloxacin by absorbance based microplate reader analysis relative to control; type: functional
[30] = Inhibition of quorum sensing system in Escherichia coli pEAL08-2 harboring pqsR gene with pqsA::lacZ translation fusion assessed as inhibition of pqsA translation activation by measuring inhibition of […] activity incubated for 8 hrs by absorbance based analysis; conditions: dose 32-128 µg/ml
[31] = Inhibition of quorum sensing system in Pseudomonas aeruginosa PAO1 transfected with rhlA-gfp reporter assessed as inhibition of fluorescence expression incubated for >=12 hrs by microplate reader analysis; conditions: dose 32-256 µg/ml
[32] = test system: Pseudomonas aeruginosa; test: Antibacterial activity against Pseudomonas aeruginosa 27853 assessed as inhibition of bacterial growth at 256 ug/ml measured after 25 hrs by absorbance based assay; type: functional, organism-based; conditions: dose 256.0 µg/ml

SMILES: C=C1OC(=O)C(CNC(=O)c2ccc(F)cc2)=C1c1ccc(F)cc1
- Activity [1]: Active
- inhibition [2]: Dose-Dependent Effect
- hemolysis at 1 h, 512 ug/ml [3]: > 2.5%
- inhibition [4]: Active
- inhibition [5]: Active
- inhibition [6]: 31.4%
- inhibition at 256 µg/mL [7]: 77.2%
- Activity [8]: Active
- Activity [9]: inactive
- MIC [10]: > 512 µg/mL
- MIC [11]: > 512 µg/mL
- inhibition [12]: 30.6%
- Activity [13]: Dose-Dependent Effect
- inhibition at 256 µg/mL [14]: 82.8%
- Activity [15]: Active
- inhibition [16]: Dose-Dependent Effect
- MIC [17]: > 512 µg/mL
- Activity [18]: Active
- Activity [19]: Active
- inhibition at 32 µg/mL [20]: 50.7%
- inhibition at 1 µg/mL [21]: 60.5%
- MIC [22]: > 512 µg/mL
- MIC [23]: > 512 µg/mL
- inhibition [24]: Dose-Dependent Effect
- MIC [25]: > 512 µg/mL
- inhibition [26]: inactive
- MIC [27]: > 512 µg/mL
- inhibition [28]: Dose-Dependent Effect
- inhibition (INH) [29]: 90.53%
- inhibition [30]: Dose-Dependent Effect
- inhibition [31]: Dose-Dependent Effect
- Activity [32]: inactive
